Reference: patent US8088889B2, “Teneurin c-terminal associated peptides (TCAP) and uses thereof” (priority 2002, dated 2012)
“Also recorded” adds a separate entry of the source. Ends that are not written are not given here.

How the values were obtained:
rats = test: Acoustic startle response after TCAP-1 injection; assay type: in vivo, rat
From the text: Male Wistar rats (250-275 g), were surgically implanted with cannulae (23 gauge) bilaterally into the basolateral nuclei of the amydala (AP −2.8, ML +/−5.0, DV −7.2 mm, from bregma). One week later, the animals were habituated to the acoustic startle reflex (ASR) chambers (MED Associates, grid rod cage measuring 7.5″×3.6″×4.2″), consisting of 25 trials of 120 dB stimuli presented randomly with an inter-stimulus interval of 55-65 seconds, duration of 30 msecs and frequency of 5000 Hz. The same stimulus conditions were used for test days, which consisted of a 25 trial baseline, injection with mouse TCAP-1 (with amidation signal)[SEQ. ID. NO. 40] or vehicle (0.25 μl/side, flow rate 0.5 μl/min), and testing for a further 60 trials post-drug. Each rat received vehicle treatment on the first test day then TCAP-1 (e.g. mouse TCAP-1) in a random and counter balanced fashion in subsequent test days, spaced 48 h apart. On the final test day, all rats again received vehicle treatment. Following histological analysis of cannulae placements, the data of eight rats was retained for statistical analysis.
From the data, rats were divided into high and low anxiety groups depending upon their treatment/baseline ratio for the vehicle. Animals that scored less than one were considered low anxiety, those scoring more than one were considered high anxiety. There were four animals in each anxiety group.

Gn11 cells [1] = test: cAMP accumulation in Gn11 immortalized neurons (Example 12); assay type: cell-based, mouse; conditions: for cAMP accumulation at 1 nM (in words): FIG. 25A/B
Method: (§1) Gn11 immortalized neurons were cultured as previously reported (Tellam et al., 1998) Direct cAMP measurements were performed with the nonacetylated version of a commercial kit (Assay Designs, Ann Arbor, Mich.). After starved by serum-free DMEM for 1 hr and replaced with fresh DMEM without serum, cells were treated for 15 min with TCAP, urocortin or vehicle±CRFR1 antagonist PD171729 in the continued presence of forskolin (1_M) and IBMX (100_M. Protein assays: Total protein was determined using the BCA protein assay method (Pierce Co). MTT Assays: Gn11 cells were seeded into 96-well plates and cultured in full serum DMEM until the cells were 30% confluent. Vehicle, 1 nM, 10 nM or 100 nM TCAP-1 were added into each group (n=8). (FIG. 25A) The MTT assay (Sigma Chemicals) was performed at 0, 6, 12, 24 and 48 hours. Flow Cytometry: DNA content of the Gn11 cells was quantified by staining with propridium iodide and analyzed on a FACSCAN flow cytometer (Beckman Instruments).

Gn11 cells [2] = test: Total protein, BCA protein assay, Gn11 cells; assay type: cell-based, mouse; conditions: 1, 10 and 100 nM, after 120 minutes
Method: as §1

Gn11 cells [3] = test: MTT assay, Gn11 cells; assay type: cell-based, mouse; conditions: 48 hours
Method: as §1

Gn11 cells [4] = test: Flow cytometry DNA content analysis, Gn11 cells; assay type: cell-based, mouse; conditions: after 24 hours
Method: as §1

N38 hypothalamic cells = test: Microarray gene expression in N38 hypothalamic cells; assay type: cell-based, mouse; conditions: 1 nM
Method: Total RNA (TRNA) was isolated from 3 independent treated and untreated N38 hypothalamic cell cultures, pooled (to reduce the noise), utilizing Trizol Reagent (GIBCO/BRL) following the manufacturer's protocol. The quality of total RNA was assessed using an Agilent 2100 Bioanalyzer (version A.02.01S1232, Agilent Technologies). Only RNA with the OD ratio of 1.99-2.0 at 260/280 was used.
Hybridizations were performed on the Mouse MU74Av2 GeneChip Set (Affymetrix, Santa Clara, Calif.). Samples were prepared for hybridization according to Affymetrix instructions. Briefly, a primer encoding the T7 RNA polymerase promoter linked to oligo-dT17 was used to prime double-stranded cDNA synthesis from each mRNA sample using Superscript II RNase H^− reverse transcriptase (Life Technologies, Rockville, Md.). Each purified (Qiaquick kit, Qiagen) double-stranded cDNA was in vitro transcribed using T7 RNA polymerase (T7 kit; Enzo), incorporating biotin-UTP and biotin-CTP (Enzo Biochemicals, New York, N.Y.) into the cRNAs, followed by purification using RNEasy (Qiagen) and quantitated by measuring absorption at 260 nm/280 nm. Samples were fragmented and hybridized to the Chip for 16 h at 45° C. and scanned (GeneArray scanner, Affymetrix). MicroArray Suite Version 5 (MASv5; Affymetrix) was used to scale intensities across the Genechips to 150 fluorescence units, and to determine expression values for each gene on the chip. The expression value for each gene was determined by calculating the average of differences (perfect match intensity minus mismatch intensity) of the probe pairs in use for the gene.
Gene analysis software: Data analysis was performed using two independent softwares, GeneChip and GeneSpring. To identify differentially expressed transcripts, pairwise comparison analyses were carried out with MicroArray Suite Version 5 MicroArray Suite Version 5 (MASv5; Affymetrix). This approach, which is based on the Mann-Whitney pairwise comparison test, allows the ranking of results by concordance, as well as the calculation of significance (P value) of each identified change in gene expression. Statistically significant genes (P<0.05) were selected for further analysis. Moreover, statistically significant changes in mean expression values were determined by importing the data from MASv5 into GeneSpring 5 (Silicon Genetics, Redwood City, Calif.). A stepwise process was followed, first with normalizations. A per-chip followed by a per-gene normalization in order to facilitate direct comparison of biological differences. Next, a second method of filter using Affymetrix data and p value with cut-off of P<0.005 generated 4,841 genes which were used for subsequent analysis utilizing Hierarchical Clustering, k-means, Self Organization Map (SOM) utilizing GeneSpring 5.0.
RNAs isolated from treated and untreated cells were analyzed on oligonucleotide arrays representing 12,884 mouse genes (Affymetrix, http://www.affymetrix.com). Standard filtering (p<0.005) and hierarchical clustering algorithm (average linage method: GeneSpring software—Silicon Genetics) identified significant changes in the expression of 4, 841/12,885 genes with 166 genes showing 1.5 fold down-regulation and 35 genes up-regulation in the TCAP-1-treated cells compared to the untreated cells. […] A G-protein coupled receptor-related signal transduction pathway is indicated by the regulation of genes, CREM, AKAP8, AKAP95 and PDE6A. […] The upregulation in inducible nitric oxide (INOS), a intracellular voltage-gated chloride channel (CLCN3) and the serotonin transporter (SLC6A4) may reflect the down stream actions of cAMP-mediated signal cascade and indicates the potential for TCAP to be involved in neuronal signaling systems. A role in interneuron communication by TCAP is also indicated by the modulation of genes associated with the regulation of vesicle trafficking. […]

Gn11 cells [5] = test: cAMP assay in Gn11 cells (Example 7, I); assay type: cell-based, mouse; conditions: 10^-6 M
Method: (§2) Medium and peptide was removed and the cells were lysed using 350 uL of a 0.1 M HCL 0.1% Triton X-100 solution. […] All reactions were done in triplicates. Wells were set up for blanks, non-specific binding, total activity (TA), zero binding, five standards, and 12 samples. […] The plate was allowed to shake overnight. The following morning, the wells were rinsed three times with a 10 times diluted wash buffer solution. 50 uL of conjugate was added to the TA wells and 200 uL of p-Npp substrate was added to each well. The plate was covered again and incubated at room temp for one hour. At this point, 50 uL of stop solution was added to all wells and the absorbance was read at 405 nm using a Spectramax spectrophotometer. Three levels of controls were utlized: A blank tube which provides a measure of any reactivity between p-Npp substrate and IgG coated wells.; TA: measure of activity of alkaline phosphotase in conjugate, if any; NSB: measure of binding of conjugate to plate or to antibody; Bo: measure of binding conjugate to antibody (no sample and conjugate competition).

Gn11 cells [6] = test: cGMP assay in Gn11 cells (Example 7, I); assay type: cell-based, mouse; conditions: 10^-6 M
Method: as §2

[7] = micro injected into the basolateral amygdala, 3, 30, 300 pmoles
[8] = 16 hours, relative to untreated control
[9] = treated compared to untreated cells

## TCAP-1: synthetic mouse teneurin-1 C-terminal associated peptide, SEQ. ID. NO: 37 or 38, with amidation signal (QQLLGTGRVQGYDGYFVLSVEQYLELSDSANNIHFMRQSEIGRR-NH2)
rats; administration into the lateral ventricle or amygdala of rats
  acoustic startle response: normalized the acoustic startle response
rats; amygdala-injected, FIG. 24
  relation of effect on startle response to baseline startle response: inversely proportional to the baseline startle response
rats; [7]
  startle magnitude, animals with high treatment-to-baseline ratio (>1): significant (p<0.05) decrease
  startle magnitude, animals with low treatment-to-baseline ratio (<1): significant (p, 0.05) and does dependent increase
Gn11 cells [1]; 1 nM, 15 minutes
  increase of cAMP levels over the vehicle-treated cells: 45%
Gn11 cells [1]; 1 nM
  cAMP accumulation at 1 nM (in words): increased cAMP
Gn11 cells [1]; 10 nM, FIG. 25A
  cAMP accumulation at 10 nM (in words): without effect
Gn11 cells [1]; 100 nM, 15 minutes
  decrease of cAMP accumulation from control cells: 40%
Gn11 cells [1]; 100 nM, FIG. 25A
  cAMP accumulation at 100 nM (in words): decreased (p<0.05) cAMP
Gn11 cells [2]
  total protein concentration: significant increase; also recorded: stimulated protein synthesis
Gn11 cells [3]; 1 nM
  MTT activity (mitochondrial activity) at 1 nM: significant (p<0.05) increase; also recorded: increased MTT activity
Gn11 cells [3]; 100 nM
  MTT activity (mitochondrial activity) at 100 nM: decrease; also recorded: decreased (p<0.05) MTT activity
Gn11 cells [4]; 1 nM
  incidence of G1 phase at 1 nM: reduced (p<0.05) the incidence of G1 phase
Gn11 cells [4]; 100 nM
  incidence of G1 phase at 100 nM: increased (p<0.05) G1 phase
N38 hypothalamic cells; [8]
  Fold change AKAP8 (A kinase anchor protein 8): 1.58 fold
  Fold change AKAP95 (A kinase anchor protein 95): 0.60 fold
  Fold change ALK3 (Bone morphogenic protein receptor): 0.60 fold
  Fold change AP4S1 (Adaptor related protein complex): 1.52 fold
  Fold change ARF1 (ADP ribosylation factor 1): 0.63 fold
  Fold change BARK1 (β adrenergic receptor kinase 1): 0.61 fold
  Fold change BMP4 (Bone morphogenic protein-4): 0.52 fold
  Fold change CAII (Casein kinase II): 0.61 fold
  Fold change CAMIII (Calmodulin III): 0.53 fold
  Fold change CD95 (Fas antigen): 0.61 fold
  Fold change CLCN3 (Chloride channel protein 3): 1.66 fold
  Fold change CLM2-B (Cytohesin-2): 0.63 fold
  Fold change CRD-BP (CRD-binding protein): 0.59 fold
  Fold change CREMβ1 (cAMP-responsive element modulator): 1.61 fold
  Fold change DIP1/2 (DAB2 interacting protein): 0.68 fold
  Fold change ERK1 (Mitogen activated protein kinase): 0.64 fold
  Fold change FNBX (Ferredoxin-NADP reductase): 1.61 fold
  Fold change GAS5 (Growth arrest specific transcript): 0.46 fold
  Fold change GBP3 (Guanylate binding protein): 0.63 fold
  Fold change GDAP10 (Ganglioside induced diff. protein 10): 1.62 fold
  Fold change GP25L2 (gp25L brings cargo forward from ER): 1.53 fold
  Fold change GR (Glucocorticoid receptor): 0.66 fold
  Fold change IL1R (Interleukin 1 receptor): 0.60 fold
  Fold change INI1B (Integrase interacting protein 1B): 0.48 fold
  Fold change INOS (Inducible nitric oxide synthetase): 1.50 fold
  Fold change MKI67 (Cell cycle protein regulator): 1.70 fold
  Fold change MMP1 (Matrix metalloproteinase 1): 0.55 fold
  Fold change MMP10 (Matrix metalloproteinase 10): 0.59 fold
  Fold change MOP3 (Circadian rhythm regulator): 1.57 fold
  Fold change P202 (202 interferon activatable protein): 0.61 fold
  Fold change P204 (Interferon activatable protein): 1.85 fold
  Fold change PCDHγ (protocadherin γ): 0.42 fold
  Fold change PDE6A (cGMP Phosphodiesterase α): 1.68 fold
  Fold change PPAN (Peter Pan homologue): 0.62 fold
  Fold change PTK7 (Receptor protein tyrosine kinase): 1.53 fold
  Fold change RAB10 (Ras oncogene homologue): 1.62 fold
  Fold change SDPR (Serum deprivation response protein): 0.57 fold
  Fold change SLC6A4 (Serotonin transporter): 1.53 fold
  Fold change SSG1 (Steroid sensitive gene 1): 0.62 fold
  Fold change ST7 (Suppressor of tumourigenicity): 1.97 fold
  Fold change TTF-1IP (TTF-1 interacting peptide): 0.50 fold
  Fold change YIPID (Rab-mediated membrane transport): 1.88 fold
N38 hypothalamic cells; [9]
  number of genes showing 1.5 fold down-regulation: 166 genes
  number of genes showing up-regulation: 35 genes

## mouse urocortin: CRF family peptide compared with mouse TCAP-1 in Gn11 cells (DDPPLSIDLTFHLLRTLLELARTQSQRERAEQNRIIFDSV; ends and bridges not checked) [reference compound]
Gn11 cells [1]; 1 nM
  cAMP accumulation at 1 nM (in words): increased cAMP accumulation

## rat urocortin: CRF family peptide used for the purpose of a positive control (DDPPLSIDLTFHLLRTLLELARTQSQRERAEQNRIIFDSV; ends and bridges not checked; UniProt P55090 81-120, looked up) [reference compound]
Gn11 cells [5]
  cAMP accumulation, % of the vehicle-treated cells: 89.2±6.3%
Gn11 cells [6]
  cGMP accumulation, % of the control cells: 50.0±8.5%
Gn11 cells [6]; FIG. 16B
  cGMP accumulation (in words): significant (p<0.05) decrease
